28 molecules from patent US20140315883A1, “6H-IMIDAZO[1,5-a]PYRROLO[2,3-e]PYRAZINE COMPOUNDS” (ABBVIE INC., priority 2013, published 2014) can be followed below.

Structures are written as SMILES.

This test deals with T1, Syk (Homo sapiens, UniProt P43405).
T1 construct: Purified Syk catalytic domain (aa 356-635 with a C-terminal His-tag purified in-house); His-tag (C); made in house
In words: In vitro Syk kinase activity measured by trFRET. It counts as biochemical. The settings on record: Syk catalytic domain, 0.001 mM ATP. On the procedure: In Vitro Syk Kinase Activity Measured by Time-Resolved Fluorescence Resonance Energy Transfer (trFRET)
After about 60 min incubation at rt, the reaction was quenched by addition of EDTA (final concentration: 100 mM) and developed by addition of revelation reagents (final approximate concentrations: 30 mM HEPES pH 7.0, 0.06% BSA, 0.006% Tween-20, 0.24 M KF, 80 ng/mL PT66K (europium labeled anti-phosphotyrosine antibody cat #61T66KLB Cisbio, Bedford, Mass.) and 0.6 μg/mL SAXL (Phycolink streptavidin-allophycocyanin acceptor, cat #PJ25S, Prozyme, San Leandro, Calif.). The developed reaction was incubated in the dark either at about 4° C. for about 14 h or for about 60 min at rt, then read via a time-resolved fluorescence detector (Rubystar, BMG) using a 337 nm laser for excitation and monitoring emission wavelengths at 665 nm. Within the linear range of the assay, the observed signal at 665 nm was directly related to phosphorylated product and can be used to calculate the IC50 values.
What is called IC50 is the point on the concentration scale where inhibition reaches its midpoint. The low end stands for greater potency, the high end for weaker potency. In turn, `CC(=O)N1C[C@H](O)C[C@@H]1c1nc(-c2ccc(N3CC(F)(F)C3)cc2)c2cnc3[nH]ccc3n12` [F.1.9, 1-((2R,4R)-2-(3-(4-(3,3-difluoroazetidin-1-yl)phenyl)-6H-imidazo[1,5-a]pyrrolo[2,3-e]pyrazin-1-yl)-4-hydroxypyrrolidin-1-yl)ethanone] had an IC50 below 10 nM. In turn, `COc1ccc(-c2nc([C@H]3C[C@@H](O)CN3C(C)=O)n3c2cnc2[nH]ccc23)cc1OC` [F.1.20, 1-((2R,4R)-2-(3-(3,4-dimethoxyphenyl)-6H-imidazo[1,5-a]pyrrolo[2,3-e]pyrazin-1-yl)-4-hydroxypyrrolidin-1-yl)ethanone] displayed a 50% inhibitory concentration (IC50) below 10 nM. To `CC(=O)N1C[C@H](O)C[C@@H]1c1nc(-c2csc(CO)c2)c2cnc3[nH]ccc3n12` [D.1.2, 1-((2R,4R)-4-hydroxy-2-(3-(5-(hydroxymethyl)thiophen-3-yl)-6H-imidazo[1,5-a]pyrrolo[2,3-e]pyrazin-1-yl)pyrrolidin-1-yl)ethanone] belongs 10 to 30 nM; to `CC(=O)N1C[C@H](O)C[C@@H]1c1nc(-c2ccc(N3CCO[C@@H](C)C3)cc2)c2cnc3[nH]ccc3n12` [Example #5 (S), 1-((2R,4R)-4-Hydroxy-2-(3-(4-((S)-2-methylmorpholino)phenyl)-6H-imidazo[1,5-a]pyrrolo[2,3-e]pyrazin-1-yl)pyrrolidin-1-yl)ethanone], below 10 nM.

`CC(=O)N1C[C@H](O)C[C@@H]1c1nc(-c2ccc(NC(C)C)cc2)c2cnc3[nH]cc(C)c3n12` [Example #11, 1-((2R,4R)-4-Hydroxy-2-(3-(4-(isopropylamino)phenyl)-8-methyl-6H-imidazo[1,5-a]pyrrolo[2,3-e]pyrazin-1-yl)pyrrolidin-1-yl)ethanone] returned a half-inhibitory concentration (IC50) of 30 to 100 nM. Molecule `CC(=O)N1C[C@H](O)C[C@@H]1c1nc(-c2cnc(C(C)(C)C)s2)c2cnc3[nH]ccc3n12` [Example #4, 1-((2R,4R)-2-(3-(2-(tert-Butyl)thiazol-5-yl)-6H-imidazo[1,5-a]pyrrolo[2,3-e]pyrazin-1-yl)-4-hydroxypyrrolidin-1-yl)ethanone] had an IC50 of 30 to 100 nM. To `CC(=O)N1C[C@H](O)C[C@@H]1c1nc(-c2ccc(NC(C)C)cc2)c2cnc3[nH]ccc3n12` [Example #10, 1-((2R,4R)-4-Hydroxy-2-(3-(4-(isopropylamino)phenyl)-6H-imidazo[1,5-a]pyrrolo[2,3-e]pyrazin-1-yl)pyrrolidin-1-yl)ethanone] belongs 10 to 30 nM; to `CC(=O)N1C[C@H](O)C[C@@H]1c1nc(-c2ccc(C3(O)CCC3)cc2)c2cnc3[nH]ccc3n12` [F.1.27, 1-((2R,4R)-4-hydroxy-2-(3-(4-(1-hydroxycyclobutyl)phenyl)-6H-imidazo[1,5-a]pyrrolo[2,3-e]pyrazin-1-yl)pyrrolidin-1-yl)ethanone], 10 to 30 nM; to `CC(=O)N1C[C@H](O)C[C@@H]1c1nc(-c2ccc3c(c2)CCCO3)c2cnc3[nH]ccc3n12` [F.1.19, 1-((2R,4R)-2-(3-(chroman-6-yl)-6H-imidazo[1,5-a]pyrrolo[2,3-e]pyrazin-1-yl)-4-hydroxypyrrolidin-1-yl)ethanone], 10 to 30 nM.

For `CCOc1ccc(-c2nc([C@H]3C[C@@H](O)CN3C(C)=O)n3c2cnc2[nH]ccc23)cc1` [A.1.2, 1-((2R,4R)-2-(3-(4-ethoxyphenyl)-6H-imidazo[1,5-a]pyrrolo[2,3-e]pyrazin-1-yl)-4-hydroxypyrrolidin-1-yl)ethanone], the IC50 was 10 to 30 nM.

In the case of `CC(=O)N1C[C@H](O)C[C@@H]1c1nc(-c2ccc3c(c2)OCO3)c2cnc3[nH]ccc3n12` [F.1.24, 1-((2R,4R)-2-(3-(benzo[d][1,3]dioxol-5-yl)-6H-imidazo[1,5-a]pyrrolo[2,3-e]pyrazin-1-yl)-4-hydroxypyrrolidin-1-yl)ethanone], the half-inhibitory concentration (IC50) is above 100 nM. Next, `CC(=O)N1C[C@H](O)C[C@@H]1c1nc(-c2ccc3c(c2)OCCO3)c2cnc3[nH]ccc3n12` [F.1.6, 1-((2R,4R)-2-(3-(2,3-dihydrobenzo[b][1,4]dioxin-6-yl)-6H-imidazo[1,5-a]pyrrolo[2,3-e]pyrazin-1-yl)-4-hydroxypyrrolidin-1-yl)ethanone]: 30 to 100 nM; `CC(=O)N1C[C@H](O)C[C@@H]1c1nc(-c2ccc(OCC3CC3)cc2)c2cnc3[nH]ccc3n12` [D.1.3, 1-((2R,4R)-2-(3-(4-(cyclopropylmethoxy)phenyl)-6H-imidazo[1,5-a]pyrrolo[2,3-e]pyrazin-1-yl)-4-hydroxypyrrolidin-1-yl)ethanone]: 10 to 30 nM; `CC(=O)N1C[C@H](O)C[C@@H]1c1nc(-c2ccc(N3CCO[C@H](C)C3)cc2)c2cnc3[nH]ccc3n12` [Example #5 (R), 1-((2R,4R)-4-hydroxy-2-(3-(4-((R)-2-methylmorpholino)phenyl)-6H-imidazo[1,5-a]pyrrolo[2,3-e]pyrazin-1-yl)pyrrolidin-1-yl)ethanone]: below 10 nM. Next, `CC(=O)N1C[C@H](O)C[C@@H]1c1nc(-c2ccc(OC3CC3)cc2)c2cnc3[nH]ccc3n12` [F.1.31]: 10 to 30 nM; `COc1ccc(-c2nc([C@H]3C[C@@H](O)CN3C(C)=O)n3c2cnc2[nH]ccc23)s1` [Example #3, 1-((2R,4R)-4-Hydroxy-2-(3-(5-methoxythiophen-2-yl)-6H-imidazo[1,5-a]pyrrolo[2,3-e]pyrazin-1-yl)pyrrolidin-1-yl)ethanone]: 10 to 30 nM. To `CC(=O)N1C[C@H](O)C[C@@H]1c1nc(-c2ccc(N3CCOCC3)cc2)c2cnc3[nH]ccc3n12` [F.1.17, 1-((2R,4R)-4-hydroxy-2-(3-(4-morpholinophenyl)-6H-imidazo[1,5-a]pyrrolo[2,3-e]pyrazin-1-yl)pyrrolidin-1-yl)ethanone] belongs below 10 nM; to `CC(=O)N1C[C@H](O)C[C@@H]1c1nc(-c2ccc(OCC3(C)COC3)cc2)c2cnc3[nH]ccc3n12` [D.1.1, 1-((2R,4R)-4-hydroxy-2-(3-(4-((3-methyloxetan-3-yl)methoxy)phenyl)-6H-imidazo[1,5-a]pyrrolo[2,3-e]pyrazin-1-yl)pyrrolidin-1-yl)ethanone], 10 to 30 nM. With `COCCOc1ccc(-c2nc([C@H]3C[C@@H](O)CN3C(C)=O)n3c2cnc2[nH]ccc23)cc1` [F.1.21, 1-((2R,4R)-4-hydroxy-2-(3-(4-(2-methoxyethoxy)phenyl)-6H-imidazo[1,5-a]pyrrolo[2,3-e]pyrazin-1-yl)pyrrolidin-1-yl)ethanone], the half-maximal inhibitory concentration (IC50) was 10 to 30 nM. Next, `COc1ccc(-c2nc([C@H]3C[C@@H](O)CN3C(C)=O)n3c2cnc2[nH]ccc23)cc1F` [F.1.26, 1-((2R,4R)-2-(3-(3-fluoro-4-methoxyphenyl)-6H-imidazo[1,5-a]pyrrolo[2,3-e]pyrazin-1-yl)-4-hydroxypyrrolidin-1-yl)ethanone]: 30 to 100 nM; `CC(=O)N1C[C@H](O)C[C@@H]1c1nc(-c2ccc(OCCN3CCOCC3)cc2)c2cnc3[nH]ccc3n12` [F.1.12, 1-((2R,4R)-4-hydroxy-2-(3-(4-(2-morpholinoethoxy)phenyl)-6H-imidazo[1,5-a]pyrrolo[2,3-e]pyrazin-1-yl)pyrrolidin-1-yl)ethanone]: 10 to 30 nM. The molecule `CC(=O)N1C[C@H](O)C[C@@H]1c1nc(-c2ccc(N3CCOC(C)C3)cc2)c2cnc3[nH]ccc3n12` (stereo partly drawn) [F.1.7, 1-((2R,4R)-4-hydroxy-2-(3-(4-(2-methylmorpholino)phenyl)-6H-imidazo[1,5-a]pyrrolo[2,3-e]pyrazin-1-yl)pyrrolidin-1-yl)ethanone] yielded a 50% inhibitory concentration (IC50) below 10 nM.

The molecule `CC(=O)N1C[C@H](O)C[C@@H]1c1nc(-c2ccc(C3(C)COC3)cc2)c2cnc3[nH]ccc3n12` [A.1.6] had a half-maximal inhibitory concentration (IC50) below 10 nM. Take `CC(=O)N1C[C@H](O)C[C@@H]1c1nc(-c2ccc(N3CCC(F)(F)CC3)cc2)c2cnc3[nH]ccc3n12` [F.1.8, 1-((2R,4R)-2-(3-(4-(4,4-difluoropiperidin-1-yl)phenyl)-6H-imidazo[1,5-a]pyrrolo[2,3-e]pyrazin-1-yl)-4-hydroxypyrrolidin-1-yl)ethanone]: the IC50 was below 10 nM. `CCNc1ccc(-c2nc([C@H]3C[C@@H](O)CN3C(C)=O)n3c2cnc2[nH]ccc23)cc1` [Example #F.1, 1-((2R,4R)-2-(3-(4-(ethylamino)phenyl)-6H-imidazo[1,5-a]pyrrolo[2,3-e]pyrazin-1-yl)-4-hydroxypyrrolidin-1-yl)ethanone] gave a concentration for half-maximal inhibition (IC50) of 10 to 30 nM.

`COc1ccc(-c2nc([C@H]3C[C@@H](O)CN3C(C)=O)n3c2cnc2[nH]ccc23)cc1C` [F.1.22, 1-((2R,4R)-4-hydroxy-2-(3-(4-methoxy-3-methylphenyl)-6H-imidazo[1,5-a]pyrrolo[2,3-e]pyrazin-1-yl)pyrrolidin-1-yl)ethanone] registered an IC50 of 10 to 30 nM.

In turn, `CC(=O)N1C[C@H](O)C[C@@H]1c1nc(-c2ccc(C(C)(C)O)cc2)c2cnc3[nH]ccc3n12` [F.1.15, 1-((2R,4R)-4-hydroxy-2-(3-(4-(2-hydroxypropan-2-yl)phenyl)-6H-imidazo[1,5-a]pyrrolo[2,3-e]pyrazin-1-yl)pyrrolidin-1-yl)ethanone] yielded a half-inhibitory concentration (IC50) below 10 nM. Molecule `CC(=O)N1C[C@H](O)C[C@@H]1c1nc(-c2ccc(N3CCOCC3)cc2)c2cnc3[nH]cc(Cl)c3n12` [F.1.10, 1-((2R,4R)-2-(8-chloro-3-(4-morpholinophenyl)-6H-imidazo[1,5-a]pyrrolo[2,3-e]pyrazin-1-yl)-4-hydroxypyrrolidin-1-yl)ethanone] came in with an IC50 below 10 nM.
